Source: PubChem BioAssay AID1963839 (Molecular Pharmacology Branch, DTP, NCI, 2024)

System: 817829-284-R-J1-PDC complex spheroid viability
Assay: Anticancer human tumor 817829-284-R-J1-PDC patient-derived colon adenocarcinoma cell line growth inhibition [POLQ]
Conditions: for IC50: curve of first compound; for viability, T/C: stronger effect = lower value
How it was run: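 Complex spheroid viability model combining PDC tumour cells with endothelial (HUVEC) and MSC stromal cells. Novobiocin, ART-558 or RP6685 were tested singly and in combination with standard and investigational anticancer drugs. Each was titrated in half-log steps from near clinical Cmax, or from 10 microM where Cmax was unknown.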

[1] = second compound 0.0316 µM, first compound 0.00316 µM
[2] = second compound 0.0316 µM, first compound 0.01 µM
[3] = second compound 0.0316 µM, first compound 0.0316 µM
[4] = second compound 0.0316 µM, first compound 0.1 µM
[5] = second compound 0.1 µM, first compound 0.00316 µM
[6] = second compound 0.1 µM, first compound 0.01 µM
[7] = second compound 0.1 µM, first compound 0.0316 µM
[8] = second compound 0.1 µM, first compound 0.1 µM
[9] = second compound 0.316 µM, first compound 0.00316 µM
[10] = second compound 0.316 µM, first compound 0.01 µM
[11] = second compound 0.316 µM, first compound 0.0316 µM
[12] = second compound 0.316 µM, first compound 0.1 µM
[13] = second compound 1 µM, first compound 0.00316 µM
[14] = second compound 1 µM, first compound 0.01 µM
[15] = second compound 1 µM, first compound 0.0316 µM
[16] = second compound 1 µM, first compound 0.1 µM
[17] = second compound 3.16 µM, first compound 0.00316 µM
[18] = second compound 3.16 µM, first compound 0.01 µM
[19] = second compound 3.16 µM, first compound 0.0316 µM
[20] = second compound 3.16 µM, first compound 0.1 µM
[21] = second compound 10 µM, first compound 0.00316 µM
[22] = second compound 10 µM, first compound 0.01 µM
[23] = second compound 10 µM, first compound 0.0316 µM
[24] = second compound 10 µM, first compound 0.1 µM
[25] = second compound 0.0316 µM, first compound 0.316 µM
[26] = second compound 0.0316 µM, first compound 1 µM
[27] = second compound 0.1 µM, first compound 0.316 µM
[28] = second compound 0.1 µM, first compound 1 µM
[29] = second compound 0.316 µM, first compound 0.316 µM
[30] = second compound 0.316 µM, first compound 1 µM
[31] = second compound 1 µM, first compound 0.316 µM
[32] = second compound 1 µM, first compound 1 µM
[33] = second compound 3.16 µM, first compound 0.316 µM
[34] = second compound 3.16 µM, first compound 1 µM
[35] = second compound 10 µM, first compound 0.316 µM
[36] = second compound 10 µM, first compound 1 µM
[37] = second compound 0.0316 µM, first compound 3.16 µM
[38] = second compound 0.0316 µM, first compound 10 µM
[39] = second compound 0.1 µM, first compound 3.16 µM
[40] = second compound 0.1 µM, first compound 10 µM
[41] = second compound 0.316 µM, first compound 3.16 µM
[42] = second compound 0.316 µM, first compound 10 µM
[43] = second compound 1 µM, first compound 3.16 µM
[44] = second compound 1 µM, first compound 10 µM
[45] = second compound 3.16 µM, first compound 3.16 µM
[46] = second compound 3.16 µM, first compound 10 µM
[47] = second compound 10 µM, first compound 3.16 µM
[48] = second compound 10 µM, first compound 10 µM
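Further: spheroids exposed to compounds for 7 days.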
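Wherever viability, T/C is given: 100% = DMSO vehicle-treated spheroids.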

Compound `CC[C@@]1(O)C(=O)OCc2c1cc1n(c2=O)Cc2cc3c(CN(C)C)c(O)ccc3nc2-1` + Nc1ccc(C#CCN(C(=O)Cc2ncc(C(F)(F)F)cc2C(F)(F)F)c2ccc(F)cc2)nn1 has an IC50 (second compound 0.0316 µM) of 8.46 nM, an IC50 (second compound 0.1 µM) of 9.72 nM and an IC50 (second compound 0.316 µM) of 11 nM. It also gave an IC50 (second compound 1 µM) of 8.84 nM, an IC50 (second compound 3.16 µM) of 12 nM and an IC50 (second compound 10 µM) of 6.8 nM. For the same compound, the viability, T/C (second compound 0.0316 µM, first compound 0.000316 µM) was 91.3%, the viability, T/C (second compound 0.0316 µM, first compound 0.001 µM) was 99% and the viability, T/C [1] was 85.9%. For the same compound, the viability, T/C [2] was 43.2%, the viability, T/C [3] was 24.2% and the viability, T/C [4] was 15.9%. For the same compound, the viability, T/C (second compound 0.1 µM, first compound 0.000316 µM) was 90.2%, the viability, T/C (second compound 0.1 µM, first compound 0.001 µM) was 86% and the viability, T/C [5] was 88.2%. For the same compound, the viability, T/C [6] was 48.9%, the viability, T/C [7] was 20.9% and the viability, T/C [8] was 17.3%. For the same compound, the viability, T/C (second compound 0.316 µM, first compound 0.000316 µM) was 106%, the viability, T/C (second compound 0.316 µM, first compound 0.001 µM) was 93.3% and the viability, T/C [9] was 85%. The viability, T/C [10] was 54.4%, the viability, T/C [11] was 21.3% and the viability, T/C [12] was 17.9%. The viability, T/C (second compound 1 µM, first compound 0.000316 µM) was 111%, the viability, T/C (second compound 1 µM, first compound 0.001 µM) was 115% and the viability, T/C [13] was 86.6%. The viability, T/C [14] was 45.5%, the viability, T/C [15] was 24.4% and the viability, T/C [16] was 15.7%. The viability, T/C (second compound 3.16 µM, first compound 0.000316 µM) was 95.1%, the viability, T/C (second compound 3.16 µM, first compound 0.001 µM) was 94.3% and the viability, T/C [17] was 82%. For the same compound, the viability, T/C [18] was 57.2%, the viability, T/C [19] was 20.1% and the viability, T/C [20] was 13.9%. For the same compound, the viability, T/C (second compound 10 µM, first compound 0.000316 µM) was 93.8%, the viability, T/C (second compound 10 µM, first compound 0.001 µM) was 91.2% and the viability, T/C [21] was 62.1%. It also gave a viability, T/C [22] of 43.2%, a viability, T/C [23] of 25.6% and a viability, T/C [24] of 15.1%.

`CCc1c2c(nc3ccc(O)cc13)-c1cc3c(c(=O)n1C2)COC(=O)[C@]3(O)CC` + Nc1ccc(C#CCN(C(=O)Cc2ncc(C(F)(F)F)cc2C(F)(F)F)c2ccc(F)cc2)nn1 was tested, and the IC50 (second compound 0.0316 µM) was less than 3.16 nM, the IC50 (second compound 0.1 µM) was less than 3.16 nM and the IC50 (second compound 0.316 µM) was less than 3.16 nM. For the same compound, the IC50 (second compound 1 µM) was less than 3.16 nM, the IC50 (second compound 3.16 µM) was less than 3.16 nM and the IC50 (second compound 10 µM) was less than 3.16 nM. The viability, T/C [1] was 22.5%, the viability, T/C [2] was 14.5% and the viability, T/C [3] was 14.1%. The viability, T/C [4] was 9.79%, the viability, T/C [25] was 5.25% and the viability, T/C [26] was 3.01%. For the same compound, the viability, T/C [5] was 20.9%, the viability, T/C [6] was 17.8% and the viability, T/C [7] was 12.8%. The viability, T/C [8] was 8.52%, the viability, T/C [27] was 4.76% and the viability, T/C [28] was 2.98%. It also gave a viability, T/C [9] of 18.2%, a viability, T/C [10] of 19.1% and a viability, T/C [11] of 11.2%. The viability, T/C [12] was 7.52%, the viability, T/C [29] was 4.9% and the viability, T/C [30] was 2.95%. It also gave a viability, T/C [13] of 22.2%, a viability, T/C [14] of 21.4% and a viability, T/C [15] of 14.4%. It also gave a viability, T/C [16] of 7.16%, a viability, T/C [31] of 4.75% and a viability, T/C [32] of 2.54%. It also gave a viability, T/C [17] of 15.1%, a viability, T/C [18] of 16.2% and a viability, T/C [19] of 13%. It also gave a viability, T/C [20] of 7.06%, a viability, T/C [33] of 4.44% and a viability, T/C [34] of 2.95%. The viability, T/C [21] was 21.7%, the viability, T/C [22] was 17% and the viability, T/C [23] was 10%. It also gave a viability, T/C [24] of 7.06%, a viability, T/C [35] of 3.78% and a viability, T/C [36] of 2.98%.

With `Nc1ccn(C2OC(CO)C(O)C2(F)F)c(=O)n1` (stereo not drawn) + Nc1ccc(C#CCN(C(=O)Cc2ncc(C(F)(F)F)cc2C(F)(F)F)c2ccc(F)cc2)nn1 the IC50 (second compound 0.0316 µM) was less than 31.6 nM, the IC50 (second compound 0.1 µM) was less than 31.6 nM and the IC50 (second compound 0.316 µM) was less than 31.6 nM. It also gave an IC50 (second compound 1 µM) of less than 31.6 nM, an IC50 (second compound 3.16 µM) of less than 31.6 nM and an IC50 (second compound 10 µM) of less than 31.6 nM. It also gave a viability, T/C [3] of 3.03%, a viability, T/C [4] of 4.05% and a viability, T/C [25] of 4.41%. It also gave a viability, T/C [26] of 4.06%, a viability, T/C [37] of 2.78% and a viability, T/C [38] of 2.3%. For the same compound, the viability, T/C [7] was 3.67%, the viability, T/C [8] was 4.46% and the viability, T/C [27] was 3.95%. For the same compound, the viability, T/C [28] was 3.72%, the viability, T/C [39] was 3.07% and the viability, T/C [40] was 1.99%. It also gave a viability, T/C [11] of 3.79%, a viability, T/C [12] of 3.81% and a viability, T/C [29] of 4.1%. For the same compound, the viability, T/C [30] was 4.23%, the viability, T/C [41] was 2.51% and the viability, T/C [42] was 2.13%. The viability, T/C [15] was 3.62%, the viability, T/C [16] was 4.03% and the viability, T/C [31] was 4.21%. The viability, T/C [32] was 3.9%, the viability, T/C [43] was 2.69% and the viability, T/C [44] was 1.87%. For the same compound, the viability, T/C [19] was 4.08%, the viability, T/C [20] was 3.7% and the viability, T/C [33] was 3.44%. The viability, T/C [34] was 3.79%, the viability, T/C [45] was 2.78% and the viability, T/C [46] was 1.9%. The viability, T/C [23] was 5.53%, the viability, T/C [24] was 3.31% and the viability, T/C [35] was 3.9%. For the same compound, the viability, T/C [36] was 3.4%, the viability, T/C [47] was 3.17% and the viability, T/C [48] was 2.42%.

For `O=C(c1cc(Cc2n[nH]c(=O)c3ccccc23)ccc1F)N1CCN(C(=O)C2CC2)CC1` + Nc1ccc(C#CCN(C(=O)Cc2ncc(C(F)(F)F)cc2C(F)(F)F)c2ccc(F)cc2)nn1, the IC50 (second compound 0.0316 µM) was 5080 nM, the IC50 (second compound 0.1 µM) was 2540 nM and the IC50 (second compound 0.316 µM) was 4010 nM. The IC50 (second compound 1 µM) was 4530 nM, the IC50 (second compound 3.16 µM) was 4240 nM and the IC50 (second compound 10 µM) was 4740 nM. For the same compound, the viability, T/C [3] was 118%, the viability, T/C [4] was 96% and the viability, T/C [25] was 93.7%. It also gave a viability, T/C [26] of 91.6%, a viability, T/C [37] of 58.1% and a viability, T/C [38] of 32.9%. The viability, T/C [7] was 108%, the viability, T/C [8] was 103% and the viability, T/C [27] was 83.2%. For the same compound, the viability, T/C [28] was 66.8%, the viability, T/C [39] was 47% and the viability, T/C [40] was 27.4%. For the same compound, the viability, T/C [11] was 90.3%, the viability, T/C [12] was 94% and the viability, T/C [29] was 98.1%. It also gave a viability, T/C [30] of 93.5%, a viability, T/C [41] of 55% and a viability, T/C [42] of 30.9%. It also gave a viability, T/C [15] of 106%, a viability, T/C [16] of 94.5% and a viability, T/C [31] of 89.6%. It also gave a viability, T/C [32] of 85.2%, a viability, T/C [43] of 58.2% and a viability, T/C [44] of 27.8%. For the same compound, the viability, T/C [19] was 113%, the viability, T/C [20] was 104% and the viability, T/C [33] was 112%. It also gave a viability, T/C [34] of 92.5%, a viability, T/C [45] of 58.6% and a viability, T/C [46] of 26%. For the same compound, the viability, T/C [23] was 104%, the viability, T/C [24] was 94.8% and the viability, T/C [35] was 86.7%. For the same compound, the viability, T/C [36] was 94.8%, the viability, T/C [47] was 63.5% and the viability, T/C [48] was 25.1%.
